From ChEMBL document CHEMBL3351292, “Structure-Based Design and Synthesis of Potent Cyclic Peptides Inhibiting the YAP-TEAD Protein-Protein Interaction” (ACS Med Chem Lett, 2014) come the findings set out here.

Where a SMILES comes first, the peptide text is derived from it.

As a reminder, the inhibition is the share of the control response that was lost under treatment.

The target of this assay is Transcriptional coactivator YAP1/Transcriptional enhancer factor TEF-1 (Homo sapiens) (UniProt P46937+P28347). The assay is described as follows: Inhibition of YAP/ GST-TEAD1 (unknown origin) interaction at 50 uM by surface plasmon resonance assay. It counts as protein assay.
Chain of Transcriptional coactivator YAP1/Transcriptional enhancer factor TEF-1 (Homo sapiens) (P28347 whole entry, looked up): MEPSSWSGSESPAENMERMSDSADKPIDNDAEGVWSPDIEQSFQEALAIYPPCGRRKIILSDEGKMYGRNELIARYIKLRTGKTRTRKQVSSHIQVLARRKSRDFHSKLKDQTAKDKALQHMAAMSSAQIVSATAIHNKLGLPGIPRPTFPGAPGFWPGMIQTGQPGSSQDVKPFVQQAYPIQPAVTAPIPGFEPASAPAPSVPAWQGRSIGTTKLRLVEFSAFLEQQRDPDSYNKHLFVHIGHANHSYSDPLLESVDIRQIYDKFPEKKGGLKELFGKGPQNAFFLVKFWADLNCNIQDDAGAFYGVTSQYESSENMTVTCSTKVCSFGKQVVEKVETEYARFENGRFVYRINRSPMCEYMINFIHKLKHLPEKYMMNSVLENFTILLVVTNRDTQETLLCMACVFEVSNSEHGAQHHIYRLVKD
Chain of Transcriptional coactivator YAP1/Transcriptional enhancer factor TEF-1 (Homo sapiens) (P46937 whole entry, looked up): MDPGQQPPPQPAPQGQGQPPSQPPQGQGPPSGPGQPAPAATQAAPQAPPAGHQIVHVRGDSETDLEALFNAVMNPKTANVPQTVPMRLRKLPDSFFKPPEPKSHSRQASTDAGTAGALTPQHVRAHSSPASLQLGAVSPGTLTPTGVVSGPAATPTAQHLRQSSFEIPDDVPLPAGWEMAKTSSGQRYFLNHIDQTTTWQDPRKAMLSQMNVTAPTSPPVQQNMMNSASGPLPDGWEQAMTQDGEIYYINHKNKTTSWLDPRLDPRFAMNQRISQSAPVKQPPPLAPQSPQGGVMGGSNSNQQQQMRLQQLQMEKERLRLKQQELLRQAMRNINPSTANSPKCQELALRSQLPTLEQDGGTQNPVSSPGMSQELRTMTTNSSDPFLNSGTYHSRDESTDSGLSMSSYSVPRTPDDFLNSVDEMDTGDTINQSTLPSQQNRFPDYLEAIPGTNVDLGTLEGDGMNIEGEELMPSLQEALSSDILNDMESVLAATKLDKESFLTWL
For the compound `CSCC[C@H](NC(=O)[C@@H]1CCCN1C(=O)[C@@H](NC(=O)[C@@H](NC(=O)[C@H](CCC(N)=O)NC(=O)[C@@H]1CCCN1C(C)=O)[C@@H](C)O)C(C)C)C(=O)N[C@@H](CCCNC(=N)N)C(=O)N[C@@H](CC(C)C)C(=O)N[C@@H](CCCNC(=N)N)C(=O)N[C@@H](CCCCN)C(=O)N[C@@H](CC(C)C)C(=O)N1CCC[C@H]1C(=O)N[C@@H](CC(=O)O)C(=O)N[C@@H](CO)C(=O)N[C@@H](Cc1ccccc1)C(=O)N[C@@H](Cc1ccccc1)C(=O)N[C@@H](CCCCN)C(=O)N[C@@H](C)C(=O)N1CCC[C@H]1C(=O)N[C@@H](CCC(=O)O)C(N)=O` (Ac-PQTVPMRLRKLPDSFFKAPE-NH2), the inhibition stood at 47%.

For `CSCC[C@H](NC(=O)[C@@H]1CCCN1C(=O)[C@@H](NC(=O)[C@@H](NC(=O)[C@H](CCC(N)=O)NC(=O)[C@@H]1CCCN1C(C)=O)[C@@H](C)O)C(C)C)C(=O)N[C@@H](CCCNC(=N)N)C(=O)N[C@@H](CC(C)C)C(=O)N[C@@H](CCCNC(=N)N)C(=O)N[C@@H](CCCCN)C(=O)N[C@@H](CC(C)C)C(=O)N1CCC[C@H]1C(=O)N[C@@H](CC(=O)O)C(=O)N[C@@H](CO)C(=O)N[C@@H](Cc1ccccc1)C(=O)N[C@@H](Cc1ccccc1)C(=O)N[C@@H](CCCCN)C(=O)N1CCC[C@H]1C(N)=O` (Ac-PQTVPMRLRKLPDSFFKP-NH2), the inhibition came out at 42%.

For `CSCC[C@H](NC(=O)[C@@H]1CCCN1C(=O)[C@@H](NC(=O)[C@@H](NC(=O)[C@H](CCC(N)=O)NC(=O)[C@@H]1CCCN1C(C)=O)[C@@H](C)O)C(C)C)C(=O)N[C@@H](CCCNC(=N)N)C(=O)N[C@@H](CC(C)C)C(=O)N[C@@H](CCCNC(=N)N)C(=O)N[C@@H](CCCCN)C(=O)N[C@@H](CC(C)C)C(=O)N1CCC[C@H]1C(=O)N[C@@H](CC(=O)O)C(=O)N[C@@H](CO)C(=O)N[C@@H](Cc1ccccc1)C(N)=O` (Ac-PQTVPMRLRKLPDSF-NH2), the inhibition is 5.4%.

In the case of `CC(=O)N1CCC[C@H]1C(=O)N[C@@H](CCC(N)=O)C(=O)N[C@H](C(=O)N[C@H](C(=O)N1CCC[C@H]1C(=O)N[C@@H](C)C(=O)N[C@@H](CCCNC(=N)N)C(=O)N[C@@H](CC(C)C)C(=O)N[C@@H](CCCNC(=N)N)C(=O)N[C@@H](CCCCN)C(=O)N[C@@H](CC(C)C)C(=O)N1CCC[C@H]1C(=O)N[C@@H](CC(=O)O)C(=O)N[C@@H](CO)C(=O)N[C@@H](Cc1ccccc1)C(=O)N[C@@H](Cc1ccccc1)C(=O)N[C@@H](CCCCN)C(=O)N1CCC[C@H]1C(=O)N1CCC[C@H]1C(=O)N[C@@H](CCC(=O)O)C(N)=O)C(C)C)[C@@H](C)O` (Ac-PQTVPARLRKLPDSFFKPPE-NH2), the inhibition is 1.3%.

On to `CSCC[C@H](NC(=O)[C@@H]1CCCN1C(=O)[C@@H](NC(=O)[C@@H](NC(=O)[C@H](CCC(N)=O)NC(=O)[C@@H]1CCCN1C(C)=O)[C@@H](C)O)C(C)C)C(=O)N[C@@H](CCCNC(=N)N)C(=O)N[C@@H](CC(C)C)C(=O)N[C@@H](CCCNC(=N)N)C(=O)N[C@@H](CCCCN)C(=O)N[C@@H](CC(C)C)C(=O)N1CCC[C@H]1C(=O)N[C@@H](CC(=O)O)C(=O)N[C@@H](CO)C(=O)N[C@@H](Cc1ccccc1)C(=O)N[C@@H](Cc1ccccc1)C(N)=O` (Ac-PQTVPMRLRKLPDSFF-NH2), for which the inhibition amounted to 13%.

Turning to `CC(=O)N[C@@H](CCCNC(=N)N)C(=O)N[C@@H](CC(C)C)C(=O)N[C@@H](CCCNC(=N)N)C(=O)N[C@@H](CCCCN)C(=O)N[C@@H](CC(C)C)C(=O)N1CCC[C@H]1C(=O)N[C@@H](CC(=O)O)C(=O)N[C@@H](CO)C(=O)N[C@@H](Cc1ccccc1)C(=O)N[C@@H](Cc1ccccc1)C(=O)N[C@@H](CCCCN)C(=O)N1CCC[C@H]1C(=O)N1CCC[C@H]1C(=O)N[C@@H](CCC(=O)O)C(N)=O` (Ac-RLRKLPDSFFKPPE-NH2), the inhibition turned out to be 12%.

With `CSCC[C@H](NC(=O)[C@@H]1CCCN1C(=O)[C@@H](NC(=O)[C@@H](NC(=O)[C@H](CCC(N)=O)NC(=O)[C@@H]1CCCN1C(C)=O)[C@@H](C)O)C(C)C)C(=O)N[C@@H](C)C(=O)N[C@@H](CC(C)C)C(=O)N[C@@H](CCCNC(=N)N)C(=O)N[C@@H](CCCCN)C(=O)N[C@@H](CC(C)C)C(=O)N1CCC[C@H]1C(=O)N[C@@H](CC(=O)O)C(=O)N[C@@H](CO)C(=O)N[C@@H](Cc1ccccc1)C(=O)N[C@@H](Cc1ccccc1)C(=O)N[C@@H](CCCCN)C(=O)N1CCC[C@H]1C(=O)N1CCC[C@H]1C(=O)N[C@@H](CCC(=O)O)C(N)=O` (Ac-PQTVPMALRKLPDSFFKPPE-NH2), the inhibition is 23%.

In the case of `CSCC[C@H](NC(=O)[C@@H]1CCCN1C(=O)[C@@H](NC(=O)[C@@H](NC(=O)[C@H](CCC(N)=O)NC(=O)[C@@H]1CCCN1C(C)=O)[C@@H](C)O)C(C)C)C(=O)N[C@@H](CCCNC(=N)N)C(=O)N[C@@H](CC(C)C)C(=O)N[C@@H](CCCNC(=N)N)C(=O)N[C@@H](CCCCN)C(=O)N[C@@H](CC(C)C)C(=O)N1CCC[C@H]1C(=O)N[C@@H](CC(=O)O)C(=O)N[C@@H](CO)C(=O)N[C@@H](Cc1ccccc1)C(=O)N[C@@H](Cc1ccccc1)C(=O)N[C@@H](C)C(=O)N1CCC[C@H]1C(=O)N1CCC[C@H]1C(=O)N[C@@H](CCC(=O)O)C(N)=O` (Ac-PQTVPMRLRKLPDSFFAPPE-NH2), the inhibition was determined as 42%.

As to `CSCC[C@H](NC(=O)[C@@H]1CCCN1C(=O)[C@@H](NC(=O)[C@H](C)NC(=O)[C@H](CCC(N)=O)NC(=O)[C@@H]1CCCN1C(C)=O)C(C)C)C(=O)N[C@@H](CCCNC(=N)N)C(=O)N[C@@H](CC(C)C)C(=O)N[C@@H](CCCNC(=N)N)C(=O)N[C@@H](CCCCN)C(=O)N[C@@H](CC(C)C)C(=O)N1CCC[C@H]1C(=O)N[C@@H](CC(=O)O)C(=O)N[C@@H](CO)C(=O)N[C@@H](Cc1ccccc1)C(=O)N[C@@H](Cc1ccccc1)C(=O)N[C@@H](CCCCN)C(=O)N1CCC[C@H]1C(=O)N1CCC[C@H]1C(=O)N[C@@H](CCC(=O)O)C(N)=O`, the inhibition was determined as 52%.

In the case of `CSCC[C@H](NC(=O)[C@@H]1CCCN1C(=O)[C@@H](NC(=O)[C@@H](NC(=O)[C@H](CCC(N)=O)NC(=O)[C@@H]1CCCN1C(C)=O)[C@@H](C)O)C(C)C)C(=O)N[C@@H](CCCNC(=N)N)C(=O)N[C@@H](CC(C)C)C(=O)N[C@@H](CCCNC(=N)N)C(=O)N[C@@H](CCCCN)C(=O)N[C@@H](CC(C)C)C(=O)N1CCC[C@H]1C(=O)N[C@@H](CC(=O)O)C(=O)N[C@@H](CO)C(=O)N[C@@H](C)C(=O)N[C@@H](Cc1ccccc1)C(=O)N[C@@H](CCCCN)C(=O)N1CCC[C@H]1C(=O)N1CCC[C@H]1C(=O)N[C@@H](CCC(=O)O)C(N)=O` (Ac-PQTVPMRLRKLPDSAFKPPE-NH2), the inhibition was found to be 4%.

`CSCC[C@H](NC(=O)[C@@H]1CCCN1C(C)=O)C(=O)N[C@@H](CCCNC(=N)N)C(=O)N[C@@H](CC(C)C)C(=O)N[C@@H](CCCNC(=N)N)C(=O)N[C@@H](CCCCN)C(=O)N[C@@H](CC(C)C)C(=O)N1CCC[C@H]1C(=O)N[C@@H](CC(=O)O)C(=O)N[C@@H](CO)C(=O)N[C@@H](Cc1ccccc1)C(=O)N[C@@H](Cc1ccccc1)C(=O)N[C@@H](CCCCN)C(=O)N1CCC[C@H]1C(=O)N1CCC[C@H]1C(=O)N[C@@H](CCC(=O)O)C(N)=O` (Ac-PMRLRKLPDSFFKPPE-NH2): the inhibition worked out at 25%.

In the case of `CSCC[C@H](NC(C)=O)C(=O)N[C@@H](CCCNC(=N)N)C(=O)N[C@@H](CC(C)C)C(=O)N[C@@H](CCCNC(=N)N)C(=O)N[C@@H](CCCCN)C(=O)N[C@@H](CC(C)C)C(=O)N1CCC[C@H]1C(=O)N[C@@H](CC(=O)O)C(=O)N[C@@H](CO)C(=O)N[C@@H](Cc1ccccc1)C(=O)N[C@@H](Cc1ccccc1)C(=O)N[C@@H](CCCCN)C(=O)N1CCC[C@H]1C(=O)N1CCC[C@H]1C(=O)N[C@@H](CCC(=O)O)C(N)=O` (Ac-MRLRKLPDSFFKPPE-NH2), the inhibition was 12%.

On to `CSCC[C@H](NC(=O)[C@@H]1CCCN1C(=O)[C@@H](NC(=O)[C@@H](NC(=O)[C@H](CCC(N)=O)NC(=O)[C@@H]1CCCN1C(C)=O)[C@@H](C)O)C(C)C)C(=O)N[C@@H](CCCNC(=N)N)C(=O)N[C@@H](CC(C)C)C(=O)N[C@@H](CCCNC(=N)N)C(=O)N[C@@H](CCCCN)C(=O)N[C@@H](CC(C)C)C(=O)N[C@@H](C)C(=O)N[C@@H](CC(=O)O)C(=O)N[C@@H](CO)C(=O)N[C@@H](Cc1ccccc1)C(=O)N[C@@H](Cc1ccccc1)C(=O)N[C@@H](CCCCN)C(=O)N1CCC[C@H]1C(=O)N1CCC[C@H]1C(=O)N[C@@H](CCC(=O)O)C(N)=O` (Ac-PQTVPMRLRKLADSFFKPPE-NH2), for which the inhibition was determined as 0%.

`CSCC[C@H](NC(=O)[C@@H]1CCCN1C(=O)[C@@H](NC(=O)[C@@H](NC(=O)[C@H](CCC(N)=O)NC(=O)[C@@H]1CCCN1C(C)=O)[C@@H](C)O)C(C)C)C(=O)N[C@@H](CCCNC(=N)N)C(=O)N[C@@H](CC(C)C)C(=O)N[C@@H](C)C(=O)N[C@@H](CCCCN)C(=O)N[C@@H](CC(C)C)C(=O)N1CCC[C@H]1C(=O)N[C@@H](CC(=O)O)C(=O)N[C@@H](CO)C(=O)N[C@@H](Cc1ccccc1)C(=O)N[C@@H](Cc1ccccc1)C(=O)N[C@@H](CCCCN)C(=O)N1CCC[C@H]1C(=O)N1CCC[C@H]1C(=O)N[C@@H](CCC(=O)O)C(N)=O` (Ac-PQTVPMRLAKLPDSFFKPPE-NH2): the inhibition stood at 1.7%.

As for `CSCC[C@H](NC(=O)[C@@H]1CCCN1C(=O)[C@@H](NC(=O)[C@@H](NC(=O)[C@H](CCC(N)=O)NC(=O)[C@@H]1CCCN1C(C)=O)[C@@H](C)O)C(C)C)C(=O)N[C@@H](CCCNC(=N)N)C(=O)N[C@@H](CC(C)C)C(=O)N[C@@H](CCCNC(=N)N)C(=O)N[C@@H](CCCCN)C(=O)N[C@@H](CC(C)C)C(=O)N1CCC[C@H]1C(=O)N[C@@H](CC(=O)O)C(=O)N[C@@H](CO)C(=O)N[C@@H](Cc1ccccc1)C(=O)N[C@@H](Cc1ccccc1)C(=O)N[C@@H](CCCCN)C(=O)N1CCC[C@H]1C(=O)N1CCC[C@H]1C(N)=O` (Ac-PQTVPMRLRKLPDSFFKPP-NH2), the inhibition is 52%.

Take `CSCC[C@H](NC(=O)[C@@H]1CCCN1C(=O)[C@H](C)NC(=O)[C@@H](NC(=O)[C@H](CCC(N)=O)NC(=O)[C@@H]1CCCN1C(C)=O)[C@@H](C)O)C(=O)N[C@@H](CCCNC(=N)N)C(=O)N[C@@H](CC(C)C)C(=O)N[C@@H](CCCNC(=N)N)C(=O)N[C@@H](CCCCN)C(=O)N[C@@H](CC(C)C)C(=O)N1CCC[C@H]1C(=O)N[C@@H](CC(=O)O)C(=O)N[C@@H](CO)C(=O)N[C@@H](Cc1ccccc1)C(=O)N[C@@H](Cc1ccccc1)C(=O)N[C@@H](CCCCN)C(=O)N1CCC[C@H]1C(=O)N1CCC[C@H]1C(=O)N[C@@H](CCC(=O)O)C(N)=O` (Ac-PQTAPMRLRKLPDSFFKPPE-NH2): the inhibition was 26%.
